Source: patent US20160289745A1, “NUCLEIC ACID ASSAY FOR DIAGNOSING OR […] PATHOGEN INFECTION IN A BODILY FLUID FROM A SUBJECT TREATED WITH AN ANTI-[…]” (priority 2012, published 2016)

What was measured:
[1] = tested on: MTC strain (Mycobacterium tuberculosis); experiment: Drug susceptibility testing of the patient's MTC strain; type: cell-based
[2] = tested on: Mycobacterium tuberculosis Complex (MTC); conditions: human, in vivo

How did the “drug susceptibility testing result” value ([1]; MTC strain of patient 21) turn out when `[H]/N=C(/N)N[C@H]1[C@H](O)[C@@H](O)[C@H](O[C@@H]2O[C@@H](C)[C@](O)(C=O)[C@H]2O[C@@H]2O[C@@H](CO)[C@H](O)[C@@H](O)[C@@H]2NC)[C@@H](N/C(N)=N\[H])[C@@H]1O` [Streptomycin] was run?
Its value is “resistance”.

What about the “drug susceptibility testing result” value ([1]; MTC strain of patient 23) of the same compound?
Its value is “resistance”.

With `NNC(=O)c1ccncc1` [Isoniazid] as the compound, how does the “drug susceptibility testing result” value ([1]; MTC strain of patient 21) read?
Its value is “resistance”.

What about the “drug susceptibility testing result” value ([1]; MTC strain of patient 23) of the same compound?
Its value is “resistance”.

Which results are given for `CCCc1cc(C(N)=S)ccn1` [Prothionamid]?
drug susceptibility testing result ([1]; MTC strain of patient 21): resistance; drug susceptibility testing result ([1]; MTC strain of patient 23): resistance

Which “analysis of DNA in urine” value [2] does the source give for `Nc1ccc(C(=O)O)c(O)c1` [PAS, para-aminosalicylic acid] here?
The value was “negative”.
